Results on eight molecules are retold here after article PMC12477777, “Human exposure to green spaces and monoterpenes: discovery and use of α-pinene metabolites as biomarkers” (Environment international, 2025).

Data set [1] in a line: Urinary aPM after 4 h greenness (forest) exposure. The conditions noted are these: for Frequency of occurrence / Maximum response: human urine, greenness exposure; for Proportion (observed) after greenness exposure: share of total aPM response. Format: in vivo, human. Also noted: Maximum response: unit not given here. The method, then: (§1) Briefly, for controlled inhalation experiments, eight healthy volunteers were exposed to α-pinene in a custom-built exposure chamber via inhalation from a 15 ml conical tube, containing approximately 100 μl α-pinene, for a duration of 10 min. Urine samples were collected before exposure (0 h) and 0.5, 1, 2, 3, and 4 h after exposure. […] Urine samples were collected both before (0 h) or 4 h after exposure. After collection, the urine samples were centrifuged and stored at −80 °C before analysis. […] Demographic information, including sex, age and race, can be found in Table S1.
(§2) Briefly, after 1:10 dilution, urine samples were separated using an Acquity I-Class UPLC system with an Acquity Premier CSH C18 UPLC column (Waters, MA) with a gradient comprising 0.1 % formic acid in water as the solvent A and 0.1 % formic acid in acetonitrile as the solvent B. Mass Spectrometry Elevated Energy (MS^E) data were collected using a Waters Synapt XS MS (Waters, MA) with an ESI ion source operated in the negative mode. Subsequent analyses of raw files were performed using UNIFI 1.9 and Progenesis QI 3.0 (both from Waters, MA). To validate LC-MS performance, one quality control (QC) sample, prepared by pooling equal amount of each urine sample, was injected after every ten urine sample injections.
(§3) Relative quantification of aPM was performed based on the peak responses normalized to urinary creatinine levels. Urinary creatinine levels were measured using an Ace Axcel Clinical Chemistry System with ACE Creatinine Reagent from Alfa Wassermann (West Caldwell, NJ). Statistical analyses, including ANOVA and Student’s t-tests, were conducted using SAS 9.4 (SAS Institute, NC) to explore differences in aPM across various time points. […] A threshold for statistical significance was defined as p < 0.05.

The nature of data set [2]: Kinetic modeling of urinary aPM with a pseudo one-compartment nonlinear mixed-effects model after α-pinene inhalation. It counts as in vivo, human. The conditions noted are these: for F (%), fraction of metabolite generated from absorbed α-pinene: human urine after 10 min α-pinene inhalation, F normalized to the sum of 22 detected metabolites; for Elimination t1/2 / Ka, first-order generation constant / Ke, first-order elimination rate constant / half-life / k el: human urine after α-pinene inhalation, pseudo one-compartment model; for half-life / k el: inhaled or intranasal; for half-life: read-out: Elimination t1/2 (converted); for k el: read-out: Ke, first-order elimination rate constant (converted). From the text: In this equation, i represents the participant index, j the urine sample index, C the creatinine-normalized peak response, and t the sample collection time ( h).Ka denotes the first-order generation constant ( h^−1 ), and Ke denotes the first-order elimination rate constant h^−1 . F indicates the fraction of specific aPM relative to absorbed α-pinene. The variables D and V refer to the absorbed α-pinene amount and the distribution volume, respectively. Because input data were derived from relative quantification, absolute values of D , V , and F were not available. For simplicity, D and V were fixed at 100 and 1, respectively, and F was normalized relative to the sum of all detected aPM. The error term ε accounts for residual variation.

Data set [3] in a line: aPM in mouse urine after i.p. injection of (+)-α-pinene or (−)-α-pinene. It counts as in vivo, mice (C57BL/6). The note with it: for (1R)-(+)-α-Pinene (Average), proportion of aPM in mouse urine / (1S)-(−)-α-Pinene (Average), proportion of aPM in mouse urine: 50 mg/kg; for R/(R+S): mouse urine, enantiomer specificity. The method, then:
Mouse urine was collected after exposures to either (+) or (−) α-pinene to distinguish between metabolites of different enantiomers of α-pinene. Adult male mice (C57BL/6) were intraperitoneally administered with 50 mg/kg body weight of (+)-α-pinene or (−)-α-pinene dissolved in 100 μl sterile saline with 1 % Tween 80.

Data set [4] can be described thus: Relative quantification of urinary aPM (UPLC-QTOF-MS, creatinine-normalized) after controlled α-pinene inhalation. Format: in vivo, human. The conditions noted are these: for Frequency of occurrence (percentage of samples with analyte detected) / Maximum response (highest peak response across all urine samples) / Observed Tmax / Tmax: human urine after α-pinene inhalation; for Proportion (observed) after α-pinene inhalation: share of total response of 22 aPM, averaged over post-exposure samples; for Tmax: inhaled or intranasal, read-out: Observed Tmax. The method, then:
as §1, §2, §3

Setting [5] is: mouse urine collected overnight, 50 mg/kg i.p. (+)-α-pinene.
[6] abbreviates: mouse urine collected overnight, 50 mg/kg i.p. (−)-α-pinene.
Where [7] appears, read: male, C57BL/6, mouse, in vivo, ip.

As for `CC1(C)C2CC1C(OC1OC(C(=O)O)C(O)C(O)C1O)C=C2C(=O)O` (single isomer, unassigned) [aPM5b, Myrtenic acid-4-O-GlcA], in data set [1], the Frequency of occurrence is 6.3%, the Maximum response stood at 89 and the “Proportion (observed) after greenness exposure” value amounted to 0.0%. In addition, in data set [2], the “F (%), fraction of metabolite generated from absorbed α-pinene” value (“F (%), fraction of metabolite generated” below) was 1.46 ± 0.57%; the “Elimination t1/2” value is listed as 0.87 ± 0.34 h; the “Ka, first-order generation constant” value is 1.74 ± 0.84 h⁻¹; the “Ke, first-order elimination rate constant” value amounted to 0.80 ± 0.31 h⁻¹. The “(1R)-(+)-α-Pinene (Average), proportion of aPM in mouse urine” value (“(1R)-(+)-α-Pinene (Average), proportion” for short) in data set [3] (setting [5]) is recorded as 0.0%. The “(1S)-(−)-α-Pinene (Average), proportion of aPM in mouse urine” value (“(1S)-(−)-α-Pinene (Average), proportion” for short) in data set [3] (setting [6]) is 0.0%. In data set [4], the “Frequency of occurrence (percentage of samples with analyte detected)” value came out at 91.7%, the “Maximum response (highest peak response across all urine samples)” value worked out at 22121, the “Observed Tmax” value is on record as 1 h and the “Proportion (observed) after α-pinene inhalation” value was 1.6%.

As for `CC1(C)C2CC1C(OC1OC(C(=O)O)C(O)C(O)C1O)C=C2C(=O)O` (single isomer, unassigned) [aPM5c, Myrtenic acid-4-O-GlcA], in data set [1], the Frequency of occurrence is recorded as 37.5%, the Maximum response is 136 and the “Proportion (observed) after greenness exposure” value was 0.7%. Moreover, in data set [2], the “F (%), fraction of metabolite generated” value stood at 1.28 ± 0.53%; the “Elimination t1/2” value came out at 0.88 ± 0.36 h; the “Ka, first-order generation constant” value is 1.73 ± 0.89 h⁻¹; the “Ke, first-order elimination rate constant” value was 0.79 ± 0.32 h⁻¹. Besides, in data set [3] (setting [5]), the “(1R)-(+)-α-Pinene (Average), proportion” value stood at 0.0%. For the same molecule, in data set [3] (setting [6]), the “(1S)-(−)-α-Pinene (Average), proportion” value turned out to be 0.0%. In data set [4], the “Frequency of occurrence (percentage of samples with analyte detected)” value came out at 79.2%, the “Maximum response (highest peak response across all urine samples)” value was 25963, the “Observed Tmax” value is listed as 1 h and the “Proportion (observed) after α-pinene inhalation” value is 1.2%.

`CC1(C)C2CC1C(OC1OC(C(=O)O)C(O)C(O)C1O)C=C2C(=O)O` (single isomer, unassigned) [aPM5d, Myrtenic acid-4-O-GlcA]: in data set [1], the Frequency of occurrence was 0.0%. Besides, in data set [2], the “F (%), fraction of metabolite generated” value is on record as 0.27 ± 0.09%; the “Elimination t1/2” value came out at 1.31 ± 0.46 h; the “Ka, first-order generation constant” value amounted to 1.33 ± 0.51 h⁻¹; the “Ke, first-order elimination rate constant” value is 0.53 ± 0.19 h⁻¹. Also, in data set [3] (setting [5]), the “(1R)-(+)-α-Pinene (Average), proportion” value stood at 0.2%. The “(1S)-(−)-α-Pinene (Average), proportion” value in data set [3] (setting [6]) is 0.0%. The “R/(R+S)” value in data set [3] stood at 100%. Further, in data set [4], the “Frequency of occurrence (percentage of samples with analyte detected)” value was found to be 81.3%, the “Maximum response (highest peak response across all urine samples)” value is 5115, the “Observed Tmax” value stood at 1 h and the “Proportion (observed) after α-pinene inhalation” value worked out at 0.4%.

Take `CC1(C)C2CC1C(OC1OC(C(=O)O)C(O)C(O)C1O)C=C2C(=O)O` (single isomer, unassigned) [aPM5e, Myrtenic acid-4-O-GlcA]: in data set [1], the Frequency of occurrence turned out to be 25.0%, the Maximum response was 93 and the “Proportion (observed) after greenness exposure” value amounted to 1.0%. In addition, in data set [2], the “F (%), fraction of metabolite generated” value worked out at 0.38 ± 0.16%; the “Elimination t1/2” value is given as 0.76 ± 0.28 h; the “Ka, first-order generation constant” value was found to be 0.91 ± 0.36 h⁻¹; the “Ke, first-order elimination rate constant” value stood at 0.91 ± 0.34 h⁻¹. Also, the “(1R)-(+)-α-Pinene (Average), proportion” value in data set [3] (setting [5]) is reported as 0.0%. Moreover, in data set [3] (setting [6]), the “(1S)-(−)-α-Pinene (Average), proportion” value stood at 0.3%. The “R/(R+S)” value in data set [3] was found to be 0%. Moreover, in data set [4], the “Frequency of occurrence (percentage of samples with analyte detected)” value amounted to 72.9%, the “Observed Tmax” value is 1 h and the “Proportion (observed) after α-pinene inhalation” value was 0.3%.

Molecule `CC1(C)C2CC1C(OC1OC(C(=O)O)C(O)C(O)C1O)C=C2C(=O)O` (single isomer, unassigned) [aPM5f, Myrtenic acid-4-O-GlcA] displayed a Frequency of occurrence in data set [1] of 0.0%. In data set [2], the “F (%), fraction of metabolite generated” value was 0.29 ± 0.12%; the “Elimination t1/2” value is 0.95 ± 0.37 h; the “Ka, first-order generation constant” value was determined as 1.53 ± 0.71 h⁻¹; the “Ke, first-order elimination rate constant” value is 0.73 ± 0.29 h⁻¹. The “(1R)-(+)-α-Pinene (Average), proportion” value in data set [3] (setting [5]) came out at 0.0%. For the same molecule, the “(1S)-(−)-α-Pinene (Average), proportion” value in data set [3] (setting [6]) was found to be 0.0%. For the same molecule, in data set [4], the “Frequency of occurrence (percentage of samples with analyte detected)” value is 87.5%, the “Maximum response (highest peak response across all urine samples)” value was 5543, the “Observed Tmax” value was 1 h and the “Proportion (observed) after α-pinene inhalation” value stood at 0.5%.

Regarding `CC1(C)C2CC1C(OC1OC(C(=O)O)C(O)C(O)C1O)C=C2C(=O)O` (single isomer, unassigned) [aPM5g, Myrtenic acid-4-O-GlcA], in data set [1], the Frequency of occurrence was found to be 25.0%, the Maximum response is given as 98 and the “Proportion (observed) after greenness exposure” value came to 0.4%. In addition, in data set [2], the “F (%), fraction of metabolite generated” value is 5.10 ± 2.25%; the “Elimination t1/2” value stood at 0.69 ± 0.29 h; the “Ka, first-order generation constant” value was determined as 1.62 ± 0.81 h⁻¹; the “Ke, first-order elimination rate constant” value was found to be 1.01 ± 0.43 h⁻¹. In addition, the “(1R)-(+)-α-Pinene (Average), proportion” value in data set [3] (setting [5]) was determined as 0.0%. Also, in data set [3] (setting [6]), the “(1S)-(−)-α-Pinene (Average), proportion” value was found to be 0.0%. Also, in data set [4], the “Frequency of occurrence (percentage of samples with analyte detected)” value is recorded as 100.0%, the “Maximum response (highest peak response across all urine samples)” value is reported as 77327, the “Observed Tmax” value was found to be 1 h and the “Proportion (observed) after α-pinene inhalation” value was 4.4%.

On to `CC1(C)C2CC1C(C(=O)O)=CC2=O` (stereo not shown) [aPM1, Myrtenic acid-4-one], for which, in data set [1], the Frequency of occurrence turned out to be 31.3%, the Maximum response was 3544 and the “Proportion (observed) after greenness exposure” value was 1.3%. Besides, in data set [2], the “F (%), fraction of metabolite generated” value was 1.15 ± 0.39%; the “Ka, first-order generation constant” value is 1.25 ± 0.43 h⁻¹; the half-life is 1.2 ± 0.38 h; the k el is 0.000161 s⁻¹. Besides, in data set [3] (setting [7]), the “(1R)-(+)-α-Pinene (Average), proportion” value is on record as 0.1% and the “(1S)-(−)-α-Pinene (Average), proportion” value was found to be 0.8%. Besides, in data set [4], the “Frequency of occurrence (percentage of samples with analyte detected)” value worked out at 95.8%, the “Maximum response (highest peak response across all urine samples)” value was 17385, the time to peak (Tmax) was found to be 1 h and the “Proportion (observed) after α-pinene inhalation” value worked out at 1.8%.

For `CC1=CC(OC2OC(C(=O)O)C(O)C(O)C2O)C2CC1C2(C)C` (stereo not shown) [aPM2b, verbenol glucuronide], in data set [1], the Frequency of occurrence is on record as 6.3%, the Maximum response stood at 171 and the “Proportion (observed) after greenness exposure” value was determined as 0.3%. For the same molecule, in data set [2], the “F (%), fraction of metabolite generated” value came out at 17.23 ± 3.91%; the “Ka, first-order generation constant” value was found to be 3.46 ± 0.98 h⁻¹; the half-life is 0.59 ± 0.08 h; the k el was 0.000325 s⁻¹. In data set [3] (setting [7]), the “(1R)-(+)-α-Pinene (Average), proportion” value is 50.5% and the “(1S)-(−)-α-Pinene (Average), proportion” value amounted to 34.4%. The “Detection in mouse urine” value in data set [3] (mouse, in vivo) is “present in murine samples”. For the same molecule, in data set [4], the “Frequency of occurrence (percentage of samples with analyte detected)” value is listed as 100.0% and the Tmax worked out at 0.5 h.
